Assays:
Aurora A [1] = biological target: T1, Aurora A (Homo sapiens (Human), UniProt O14965); assay: Aurora A enzyme inhibition assay; format: biochemical
Procedure: Aurora A Enzyme Inhibition Assay
(§1) The compound was dissolved in 100% DMSO at the concentration of 10 mM. The Aurora A protein was purchased from Carna (05-101). 10 μL per well of 2.5×Aurora A protein was added to assay plate containing the test compound, centrifuged at 1000 rpm for 1 minute, and then incubated at 25° C. for 10 minutes. Peptide 21 was purchased from GL Biochem (116370) and ATP was purchased from Promega (V9102). The two were added 15 μL per well mixture of 1.67× peptide 21 (final conc. is 3 μM) and ATP (final conc. is 14.58 μM), centrifuged at 1000 rpm for 1 minute, then incubated at 25° C. for 40 minutes. Then added 30 μL of stop buffer (100 mM HEPES pH7.5, 0.015% Brij-35, 0.2% Coating Reagent 3, 50 mM EDTA) to the assay plate and centrifuged at 1000 rpm for 1 minute. the product was determined. Based on the results, the IC50 value of the compound was calculated.

FLT3 = FLT3 degradation assay (western blot, MV-411 cells); format: cell-based, human; settings: protein degradation, class symbol, read-out: FLT3 DC50 (nM)/Dmax (%)
Procedure: (§2) MV-411 cells were cultured with medium (IMDM) prior to use. Cells were then incubated with a variety of concentrations of compound. After incubation, the cells were collected and lysed. The protein concentration was determined by BCA protein assay kit from Thermo (23227). The FLT3 protein level was determined by western blots, using anti-human FLT3 monoclonal antibody from CST (3462S). Proteins were loaded into each well of the pre-casting gels and subjected to electrophoretic separation by SDS-PAGE. The protein resolved by SDS-PAGE were transferred to PVDF, blocked by 5% skim milk, and probed with anti-human FLT3 antibody or -actin antibody from CST (3700S), using standard western blotting procedure.

FLT3-ITD = FLT3-ITD (Homo sapiens, UniProt P36888); assay: FLT3-ITD enzyme inhibition assay; format: biochemical; settings: enzyme inhibition
Procedure: FLT3-ITD Enzyme Inhibition Assay
as §1, with “FLT3-ITD” for “Aurora A”, “Invitrogen (PV6191).” for “Carna (05-101).”, “2.5×FLT3-ITD” for “2.5×Aurora A”, “2” for “21”, “(112394)” for “(116370)”, “97.2” for “14.58”

Aurora A [2] = biological target: T1, Aurora A; assay: Aurora A degradation assay (western blot); format: cell-based; settings: protein degradation, IMR32, Huh7 or HL-60 cells
Procedure: Aurora A Degradation Assay
as §2, with “IMR32” for “MV-411”, “cultured with medium (MEM), Huh7 cells were cultured with medium (DMEM) and HL-60 cells were culture” for “cultured”, “AURKA” for “FLT3”, “(14475S).” for “(3462S).”, “β-actin” for “-actin”, “(3700S) or COX IV antibody from CST (4850S),” for “(3700S),”

HPK1 [3] = biological target: T2, HPK1 (Homo sapiens (Human), UniProt Q92918); assay: HPK1 enzyme inhibition assay (ADP-Glo); format: biochemical
Procedure: HPK1 Enzyme Inhibition Assay
The compound was dissolved in 100% DMSO at the concentration of 10 mM. The HPK1 protein was purchased from Signal Chem (M23-11G-10). 2.5 μL per well of 2×HPK1 protein was added to assay plate containing the test compound, centrifuged at 1500 rpm for 1 minute, and then incubated at 25° C. for 60 minutes. MBP protein was purchased from Signal Chem (M42-51N) and ATP was purchased from Promega (V9102). The two were added 2.5 μL per well mixture of 2×MBP (0.2 ug/ul) and ATP (20 μM), centrifuged at 1500 rpm for 1 minute, then incubated at 25° C. for 60 minutes. Then added 5 μL of ADP-Glo from Promega (V9102) to the assay plate and depleted the unconsumed ATP for 60 minutes. Then centrifuged at 1500 rpm for 1 minute and incubated at 25° C. for 60 minutes. Finally, 10 μL of the kinase assay reagent from Promega (V9102) was added to the assay plate to convert ADP to ATP, centrifuged at 1500 rpm for 1 minute, incubate at 25° C. for 40 minutes. After 40 minutes incubation, the […] was determined. Based on the results, the IC50 value of the compound was calculated.
Target sequence in this assay (Q92918 1-346 limits assumed): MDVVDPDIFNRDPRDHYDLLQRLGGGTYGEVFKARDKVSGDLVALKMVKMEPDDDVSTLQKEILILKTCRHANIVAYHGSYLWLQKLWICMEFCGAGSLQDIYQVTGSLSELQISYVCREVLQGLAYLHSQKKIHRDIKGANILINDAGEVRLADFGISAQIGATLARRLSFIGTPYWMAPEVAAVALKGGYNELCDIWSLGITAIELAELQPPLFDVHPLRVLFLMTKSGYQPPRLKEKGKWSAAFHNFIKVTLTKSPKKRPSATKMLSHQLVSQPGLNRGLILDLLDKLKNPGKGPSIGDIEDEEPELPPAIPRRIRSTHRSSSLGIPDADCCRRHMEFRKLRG

HPK1 [4] = biological target: T2, HPK1; assay: HPK1 degradation assay (western blot, human PBMC); format: cell-based; settings: protein degradation, human PBMC
Procedure: Frozen human PBMC were purchased from Shanghai OribioTech and recovered with culture medium (RMPI1640) prior to use. The cells were then incubated with a variety of concentrations of compound. After incubation, the cells were collected and lysed. The protein concentration was determined by BCA protein assay kit from Thermo (23227). The HPK1 protein level was determined by western blots, using anti-human HPK1 polyclonal antibody from CST (4472S). Proteins were loaded into each well of the pre-casting gels and subjected to electrophoretic separation by SDS-PAGE. The protein resolved by SDS-PAGE were transferred to PVDF, blocked by 5% skim milk, and probed with anti-human HPK1 antibody or β-actin antibody from CST (3700S), using standard western blotting procedure.
Target sequence in this assay (Q92918 whole entry): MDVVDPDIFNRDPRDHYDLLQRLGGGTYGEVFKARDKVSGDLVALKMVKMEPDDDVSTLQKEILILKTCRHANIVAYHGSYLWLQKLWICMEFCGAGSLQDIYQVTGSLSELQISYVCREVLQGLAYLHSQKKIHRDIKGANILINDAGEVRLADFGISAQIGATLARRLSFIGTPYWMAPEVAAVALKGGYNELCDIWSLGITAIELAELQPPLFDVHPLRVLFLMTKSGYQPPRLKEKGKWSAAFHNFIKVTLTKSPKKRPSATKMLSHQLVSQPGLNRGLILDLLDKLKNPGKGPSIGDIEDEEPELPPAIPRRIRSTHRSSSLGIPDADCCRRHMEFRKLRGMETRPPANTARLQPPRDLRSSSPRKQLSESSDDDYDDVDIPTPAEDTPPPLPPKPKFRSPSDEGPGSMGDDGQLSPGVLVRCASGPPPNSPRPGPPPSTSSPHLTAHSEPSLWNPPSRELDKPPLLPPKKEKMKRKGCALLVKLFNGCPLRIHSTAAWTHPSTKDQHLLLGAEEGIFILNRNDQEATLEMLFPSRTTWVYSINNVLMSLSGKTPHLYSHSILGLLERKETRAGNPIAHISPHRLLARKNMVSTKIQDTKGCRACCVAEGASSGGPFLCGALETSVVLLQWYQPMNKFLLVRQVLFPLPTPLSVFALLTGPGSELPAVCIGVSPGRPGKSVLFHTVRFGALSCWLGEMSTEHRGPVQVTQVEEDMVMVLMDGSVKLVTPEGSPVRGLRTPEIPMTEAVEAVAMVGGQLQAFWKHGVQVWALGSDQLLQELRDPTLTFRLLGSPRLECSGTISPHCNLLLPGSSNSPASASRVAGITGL

MEK 1/2 = MEK 1/2 degradation assay (western blot); format: cell-based, human; settings: protein degradation, MV-411 or IMR32 cells
Procedure: MEK 1/2 Degradation Assay
as §2, with “(IMDM) and IMR32 cells were cultured with medium (MEM)” for “(IMDM)”, “anti-human MEK 1/2 polyclonal” for “anti-human FLT3 monoclonal”, “CST (9122S).” for “CST (3462S).”, “anti-human MEK1/2” for “anti-human FLT3”, “or β-actin” for “or -actin”, “CST (3700S) and COX IV antibody from CST (4850S),” for “CST (3700S),”

T1 sequence (O14965 whole entry): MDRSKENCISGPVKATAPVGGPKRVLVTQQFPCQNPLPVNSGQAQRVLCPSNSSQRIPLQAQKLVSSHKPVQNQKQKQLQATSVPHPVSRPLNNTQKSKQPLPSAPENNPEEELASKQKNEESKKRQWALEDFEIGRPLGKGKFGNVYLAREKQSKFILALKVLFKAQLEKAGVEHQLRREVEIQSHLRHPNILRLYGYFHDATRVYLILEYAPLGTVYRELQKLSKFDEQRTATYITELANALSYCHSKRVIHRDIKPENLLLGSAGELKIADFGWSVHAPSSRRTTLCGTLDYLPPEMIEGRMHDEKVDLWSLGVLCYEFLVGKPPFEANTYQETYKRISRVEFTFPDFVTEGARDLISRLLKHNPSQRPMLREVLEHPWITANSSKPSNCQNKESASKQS
Chain of FLT3-ITD (P36888 whole entry, looked up, change not shown): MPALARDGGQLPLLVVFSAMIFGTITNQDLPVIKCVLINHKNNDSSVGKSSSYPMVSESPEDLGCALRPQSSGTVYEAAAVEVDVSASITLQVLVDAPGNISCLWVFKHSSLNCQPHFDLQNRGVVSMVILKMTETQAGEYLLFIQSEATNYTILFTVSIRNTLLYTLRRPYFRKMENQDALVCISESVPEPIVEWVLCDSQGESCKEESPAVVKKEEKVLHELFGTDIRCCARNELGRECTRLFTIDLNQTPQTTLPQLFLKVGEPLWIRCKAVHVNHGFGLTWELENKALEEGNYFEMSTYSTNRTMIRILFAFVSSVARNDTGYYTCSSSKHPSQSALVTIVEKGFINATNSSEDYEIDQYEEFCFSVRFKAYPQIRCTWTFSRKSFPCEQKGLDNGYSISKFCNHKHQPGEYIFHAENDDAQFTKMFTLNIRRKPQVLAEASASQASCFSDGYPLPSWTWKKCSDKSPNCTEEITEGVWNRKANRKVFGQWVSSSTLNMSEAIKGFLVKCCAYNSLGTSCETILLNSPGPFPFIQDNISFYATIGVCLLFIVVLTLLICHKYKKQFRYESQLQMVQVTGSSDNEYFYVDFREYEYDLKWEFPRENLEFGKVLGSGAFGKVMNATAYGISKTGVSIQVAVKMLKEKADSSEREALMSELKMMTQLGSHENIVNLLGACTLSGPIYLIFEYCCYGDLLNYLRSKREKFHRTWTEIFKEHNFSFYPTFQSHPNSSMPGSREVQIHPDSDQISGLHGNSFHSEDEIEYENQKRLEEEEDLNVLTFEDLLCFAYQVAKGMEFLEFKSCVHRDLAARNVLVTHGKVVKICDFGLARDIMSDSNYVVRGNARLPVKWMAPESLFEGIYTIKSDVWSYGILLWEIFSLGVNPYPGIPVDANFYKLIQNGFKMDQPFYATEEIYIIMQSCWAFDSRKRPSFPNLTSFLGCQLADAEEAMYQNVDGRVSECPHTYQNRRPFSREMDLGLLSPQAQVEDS

CCc1c[nH]c2ncc(-c3cccc(N4CCCN(CCN5CCN(c6cc7c(cc6F)C(=O)N(C6CCC(=O)NC6=O)C7)CC5)C4=O)c3)c(Cl)c12 (stereo not shown) [Example 7, 3-(5-(4-(2-(3-(3-(4-chloro-3-ethyl-1H-pyrrolo [2,3-b]pyridin-5-yl)phenyl)-2-oxotetrahydropyrimidin-1 (2H)-yl)ethyl)piperazin-1-yl)-6-fluoro-1-oxoisoindolin-2-yl) piperidine-2,6-dione]
IC50 (Aurora A [1]): 10.6 nM | DC50 (FLT3): > 10000 nM | IC50 (FLT3-ITD): 12.3 nM | Aurora A Dmax (Aurora A [2]): 50% | DC50 (Aurora A [2]; read-out: Aurora A DC50): 5 nM | IC50 (HPK1 [3]): 10.5 nM | HPK1 Dmax (HPK1 [4]): 60% | DC50 (HPK1 [4]; read-out: HPK1 DC50): 12 nM | MEK 1/2 Dmax (MEK 1/2): 37% | DC50 (MEK 1/2; read-out: MEK 1/2 DC50): 264 nM
